Assay: method code SF-HPLC, from DOI: 10.1002/qsar.19910100205
Conditions: pH 3.5

Structure (SMILES)	logD
O=C1NC(=O)C(Cc2ccccc2)O1 (configuration not stated)	1.2
NS(=O)(=O)NC(=O)Cc1ccccc1	0.31
O=C1NC(=O)C(c2ccccc2)O1 (configuration not stated)	1.09
O=C1CS(=O)(=O)C(c2ccccc2)N1 (configuration not stated)	0.18
O=C1CC(=O)C(c2ccccc2)O1 (configuration not stated)	1.07
O=C1NC(=O)C(Cc2ccccc2)N1 (configuration not stated)	0.6
O=C1CC(=O)N(Cc2ccccc2)C1	0.76
CC1(COc2ccc(CC3SC(=O)NC3=O)cc2)CCCCC1 (configuration not stated)	3.57
O=C1NC(=O)C(Cc2ccccc2)S1 (configuration not stated)	1.98

Next, values leading:

logD	Structure (SMILES)
1.19	O=C1NC(=O)N(Cc2ccccc2)C1=O
0.83	O=C1CN(c2ccccc2)C(=O)N1
0.76	O=C1CN(Cc2ccccc2)C(=O)N1
0.6	O=C1NC(=O)N(c2ccccc2)C1=O
1.68	O=c1[nH]c(=O)n(-c2ccccc2)o1
0.54	O=C1CC(=O)N(c2ccccc2)O1
0.04	O=C1CNC(=O)N1c1ccccc1
0.48	O=C1CC(=O)C(c2ccccc2)N1 (configuration not stated)
